Source: publication PMC6154605, “Multi-Anti-Parasitic Activity of Arylidene Ketones and Thiazolidene Hydrazines against Trypanosoma cruzi and Leishmania spp” (Molecules : A Journal of Synthetic Chemistry and Natural …, 2017)
Where two headings read alike, the source gives them in different places. Marks after values point to notes of the source that are not given here.

What was measured:
[1] = tested on: J774.1 murine macrophages; test: Nonspecific cytotoxicity on macrophages, MTT; type: cell-based; conditions: Mus musculus, J774.1, 48 h; read-out: IC50 ± SD Murine Macrophages
Description: (§1) To establish the selectivity of the compounds against the parasites, nonspecific cytotoxicity against mammalian cells, using J774.1 murine macrophages and fibroblast NCTC929, was studied for the most relevant derivatives. The selectivity indexes were calculated as the ratio between cytotoxicity for mammalian cells and the anti-parasitic activity (Table 2).
J774.1 murine macrophage cells (ATCC, USA) were grown in DMEM culture milieu containing 4 mM L-glutamine and supplemented with 10% FCS. The cells were seeded in a 96-well plate (5.00 × 10^4 cells in 200 µL culture medium) and incubated at 37 °C in a 5% CO2 atmosphere for 48 h, to allow cell adhesion prior to drug testing. Afterwards, cells were exposed for 48 h to the compounds (25–400 μM) or the vehicle for control (0.4% DMSO), and additional controls (cells in medium) were used in each test. Cell viability was then assessed by measuring the mitochondria-dependent reduction of MTT (3-(4,5-dimethylthiazol-2-yl)-2,5-diphenyltetrazolium bromide) to formazan. For this purpose, MTT in sterile PBS (0.2% glucose), pH 7.4, was added to the macrophages to achieve a final concentration of 0.1 mg/mL, and the cells were incubated at 37 °C for 3 h. After removing the medium, formazan crystals were dissolved in 180 μL of DMSO and 20 μL of MTT buffer (0.1 M glycine, 0.1 M NaCl, 0.5 mM EDTA, pH 10.5), and the absorbance at 560 nm was measured. The IC50 was defined as the drug concentration at which 50% of the cells were viable, relative to the control (no drug added), and was determined by analysis using OriginLab8.5® sigmoidal regression (% of viable cells vs. the logarithm of the compound concentration). Tests were performed in triplicate.

[2] = tested on: T. cruzi epimastigotes, Tulahuen 2 strain (genotype TcVI); test: In vitro anti-T. cruzi activity, growth inhibition of epimastigotes; type: cell-based, Trypanosoma cruzi; conditions: for IC50: Trypanosoma cruzi, TULAHUEN, Tulahuen 2 strain, read-out: IC50 ± SD Epimastigotes T. cruzi; for SI J774.1/ T. cruzi: ratio IC50 mammalian cell / IC50 parasite (epimastigotes); for Trypanocidal activity on T. cruzi in words: molecular stripping, epimastigotes
Description: For the in vitro anti-T. cruzi activity, we used epimastigotes of the Tulahuen 2 strain (genotype TcVI) grown in an axenic milieu (BHI-Tryptose). Cells from a 5–7-day-old culture were inoculated in fresh culture milieu to give an initial concentration of 1.00 × 10^6 cells/mL. The absorbance at 600 nm of the cells in culture was measured every day. At Day 5, the milieu was inoculated with different quantities of the compounds from a stock solution in DMSO (DMSO concentration in the culture milieu never exceeded 0.4%). The control was made in the presence of 0.4% DMSO and in the absence of compounds. Each concentration of compound was evaluated in duplicate. At Day 5, the absorbance of the culture was measured and related to the control. […] Each antiproliferative experiment was done in duplicate, and each concentration was tested in triplicate.

zebrafish embryos = test: Zebrafish embryo toxicity test (LD50)
Description: […] Only embryos that were clearly undamaged after 60 min of observation were kept and subsequently used. Dechorionated embryos were further manipulated using flame-rounded tip glass Pasteur pipettes. […] In all cases, the embryos were incubated in system water with 1% DMSO (negative control) and the compound at different doses between 8 and 96 hpf. The treatment solution was changed daily. […] At selected time points, namely 24, 48, 72 and 96 hpf, embryotoxicity (= mortality) and morphological characteristics of the embryos were evaluated using a Nikon SMZ800 stereomicroscope. The embryos were evaluated for the presence and morphological development (as appropriate) of somites, tail detachment, eyes, heart beat and blood circulation. All individuals were evaluated at all time points.

[3] = tested on: L. infantum promastigotes; test: Leishmanicidal activity on promastigotes, resazurin; type: cell-based, Leishmania infantum; conditions: for IC50: Leishmania infantum, 48 h, read-out: IC50 ± SD Promastigotes L. infantum; for SI NCTC/ L. infantum: ratio IC50 mammalian cell / IC50 parasite (promastigotes)
From the text: (§2) We initially selected compounds previously reported to have anti-T. cruzi activity from our chemical library to evaluate their leishmanicidal activity. […]. To evaluate their activity in Leishmania spp., we performed a phenotypic screening using the promastigote form of L. infantum (MHOM/FR/91/LEM-2259) and L. braziliensis ([…]) (Table 1A for the thiazolidenehydrazine derivate and Table 1B for the arylideneketones family).
(§3) A culture of L. braziliensis (MHOM/BR/75/M2904) and L. infantum (MHOM/FR/91/LEM2259V) was obtained from the Facultad de Farmacia (Universidad Complutense, Madrid, Spain). The maintenance of the strains, the form of cultivation and the isolation of the shape of the promastigote were performed following the procedures described by Roldos et al.. The promastigotes were grown at 22 °C in Schneider’s Drosophila medium supplemented with 20% FBS. The assay was performed using a modification of a previous method. Promastigotes (2 × 10^6 parasites/well) were cultivated in 96-well plastic plates. Compounds were dissolved in dimethylsulfoxide (DMSO). Different dilutions of the compounds with a final volume up to 200 µL were added. After 48 h at 26 °C, 20 µL of a 2 mM resazurin solution were added, and the oxidation-reduction was quantified at 570 and 600 nm. The solution of resazurin was prepared at 2.5 mM in phosphate buffered solution (PBS), pH 7.4, and filtered through 0.22-µm membranes prior to use. All tests were carried out in triplicate. Resazurin sodium salt was obtained from Sigma-Aldrich (St. Louis, MO, USA) and stored at 4 °C protected from light. The efficacy of each compound was estimated by calculating the IC50 values. Each antiproliferative experiment was done in duplicate, and each concentration was tested in triplicate.

cruzipain = cruzipain (Trypanosoma cruzi, UniProt P25779); conditions: at 100 µM; cited from earlier work
cruzipain, sequence (P25779 123-467): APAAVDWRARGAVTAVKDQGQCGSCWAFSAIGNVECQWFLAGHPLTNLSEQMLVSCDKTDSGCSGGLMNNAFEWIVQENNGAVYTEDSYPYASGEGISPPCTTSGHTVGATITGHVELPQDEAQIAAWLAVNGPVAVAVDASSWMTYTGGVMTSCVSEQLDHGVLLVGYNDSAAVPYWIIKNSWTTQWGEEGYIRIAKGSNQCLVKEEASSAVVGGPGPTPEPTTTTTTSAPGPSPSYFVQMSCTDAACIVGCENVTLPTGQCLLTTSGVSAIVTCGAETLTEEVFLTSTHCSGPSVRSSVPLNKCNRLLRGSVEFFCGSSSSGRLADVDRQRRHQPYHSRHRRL

[4] = tested on: J774.1 murine macrophages; conditions: J774.1; read-out: IC50 ± SD Murine Macrophages; cited from earlier work
[5] = tested on: L. braziliensis promastigotes; test: Leishmanicidal activity on promastigotes, resazurin; type: cell-based, Leishmania braziliensis; conditions: for IC50: Leishmania braziliensis, 48 h, read-out: IC50 ± SD Promastigotes L. braziliensis; for SI NCTC/ L. braziliensis: ratio IC50 mammalian cell / IC50 parasite (promastigotes)
From the text: as §2, §3

[6] = molecular target: T1, LmTIM (triosephosphate isomerase from Leishmania mexicana) (Leishmania mexicana, UniProt P48499); test: Inhibition of triosephosphate isomerase; type: biochemical; conditions: for inhibition at 100 µM: read-out: Percentage of Inhibition LmTIM
T1 construct: made in house; host or cells: Escherichia coli
T1 sequence (P48499 whole entry): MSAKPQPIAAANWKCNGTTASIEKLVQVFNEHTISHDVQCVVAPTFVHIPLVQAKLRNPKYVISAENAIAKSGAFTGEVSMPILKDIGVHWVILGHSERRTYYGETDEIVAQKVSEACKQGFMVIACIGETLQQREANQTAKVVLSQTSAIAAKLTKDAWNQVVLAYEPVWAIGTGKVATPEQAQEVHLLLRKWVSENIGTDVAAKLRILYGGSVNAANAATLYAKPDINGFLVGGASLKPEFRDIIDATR
Description: Compounds were dissolved in DMSO. […] The experiments were performed in triplicate.

[7] = molecular target: triosephosphate isomerase from T. cruzi (TcTIM) (Trypanosoma cruzi, UniProt P52270); parameters: made in house; host or cells: Escherichia coli; conditions: at 100 µM; cited from earlier work
triosephosphate isomerase from T. cruzi (TcTIM), sequence (P52270 whole entry): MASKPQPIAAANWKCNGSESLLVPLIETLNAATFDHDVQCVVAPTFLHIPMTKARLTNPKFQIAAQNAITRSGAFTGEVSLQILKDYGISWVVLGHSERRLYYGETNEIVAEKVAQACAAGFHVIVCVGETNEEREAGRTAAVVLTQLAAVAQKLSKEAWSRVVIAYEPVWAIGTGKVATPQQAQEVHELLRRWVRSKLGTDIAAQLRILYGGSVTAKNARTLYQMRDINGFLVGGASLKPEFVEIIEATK

NCTC929 fibroblasts = test: Nonspecific cytotoxicity on fibroblasts, resazurin; type: cell-based; conditions: NCTC-929, 24 h; read-out: IC50 ± SD Fibroblast NCTC929
Description: as §1
NCTC-Clone 929 were grown in minimal essential medium (Sigma) supplemented with 10% heat-inactivated FBS, penicillin G (100 U/mL) and streptomycin (100 µg/mL). Cell cultures were maintained at 37 °C in a humidified 5% CO2 atmosphere. The procedure for cell viability measurement was evaluated with resazurin by a colorimetric method. The cells were plated in 96 microtiter plates at 3.00 × 10^4 cells/well in 100 µL growth medium. The cells were grown overnight at 37 °C, 5% CO2. Thereafter, the medium was removed, and the compounds were added to 200 µL of medium for 24 h. After incubation, 20 µL of a 2 mM resazurin solution were added to each well. The plates were incubated for 3 h to allow optimal oxidation-reduction. The reduction of resazurin was determined by dual wavelength absorbance measurement at 490 and 595 nm. The background was subtracted. Each concentration was assayed three times. Medium and drug controls were used in each test as blanks.

[8] = tested on: T. cruzi epimastigotes, Tulahuen 2 strain (genotype TcVI); conditions: cited from earlier work; for SI J774.1/ T. cruzi: ratio IC50 mammalian cell / IC50 parasite (epimastigotes); for IC50: read-out: IC50 ± SD Epimastigotes T. cruzi

**Q.** Which IC50 [1] does the source give for `O=C(Cn1ccnc1[N+](=O)[O-])NCc1ccccc1` [Benznidazole, reference compound] here?
**A.** The IC50 was 400 ± 4 µM.

**Q.** What about the IC50 [2] of the same compound?
**A.** The IC50 was 7 ± 1 µM.

**Q.** What about the “SI J774.1/ T. cruzi” value [2] of the same compound?
**A.** The value was 57.

**Q.** And the LD50 without chorion (zebrafish embryos; dechorionated zebrafish embryos, 72 h incubation)?
**A.** The LD50 without chorion was greater than 1000 µM.

**Q.** And the LD50 with chorion (zebrafish embryos; zebrafish embryos with chorion)?
**A.** Its LD50 with chorion is greater than 1000 µM.

**Q.** With `O=C(/C=C/C=C/c1ccco1)/C=C/C=C/c1ccco1` [EA128] as the compound, how does the IC50 [3] read?
**A.** Its IC50 is 31 ± 9 µM.

**Q.** What about the “SI NCTC/ L. infantum” value [3] of the same compound?
**A.** The value was 16.

**Q.** What about the “Percentage of Inhibition Cruzipain” value (cruzipain) of the same compound?
**A.** The value was 48/- ^d.

**Q.** And the IC50 [4]?
**A.** The IC50 was 60 ± 3 µM.

**Q.** And the IC50 [5]?
**A.** Its IC50 is 36 ± 9 µM.

**Q.** And the “SI NCTC/ L. braziliensis” value [5]?
**A.** Its value is 14.

**Q.** What about the inhibition at 100 µM [6] of the same compound?
**A.** The inhibition at 100 µM was 0%.

**Q.** What about the “Percentage of Inhibition TcTIM” value [7] of the same compound?
**A.** Its value is 100.

**Q.** What about the IC50 (NCTC929 fibroblasts) of the same compound?
**A.** The IC50 was 494 ± 25 µM.

**Q.** What about the “SI J774.1/ T. cruzi” value [8] of the same compound?
**A.** Its value is 12 ^c.

**Q.** What about the IC50 [8] of the same compound?
**A.** The IC50 was 5 ± 0.7 µM.

**Q.** Which IC50 [3] does the source give for `O=C(/C=C/c1cccs1)/C=C/c1cccs1` [EA138] here?
**A.** Its IC50 is 4 ± 0.5 µM.

**Q.** And the “SI NCTC/ L. infantum” value [3]?
**A.** Its value is 40.

**Q.** And the “Percentage of Inhibition Cruzipain” value (cruzipain)?
**A.** The value was 50/- ^d.

**Q.** What about the IC50 [4] of the same compound?
**A.** Its IC50 is 38 ± 7 µM.

**Q.** What about the IC50 [5] of the same compound?
**A.** The IC50 was 8 ± 2 µM.

**Q.** What about the “SI NCTC/ L. braziliensis” value [5] of the same compound?
**A.** The value was 20.

**Q.** And the IC50 ([6]; read-out: IC50 ± SD LmTIM)?
**A.** Its IC50 is less than 25 µM.

**Q.** And the inhibition at 100 µM [6]?
**A.** Its inhibition at 100 µM is 100%.

**Q.** What about the “Percentage of Inhibition TcTIM” value [7] of the same compound?
**A.** The value was 0/- ^d.

**Q.** And the IC50 (NCTC929 fibroblasts)?
**A.** The IC50 was 158 ± 5 µM.

**Q.** And the “SI J774.1/ T. cruzi” value [8]?
**A.** Its value is 8 ^c.

**Q.** And the IC50 [8]?
**A.** The IC50 was 5 ± 0.8 µM.

**Q.** For `C=CCn1c(-c2ccc(Cl)cc2)cs\c1=N/N=C/C=C/c1ccc(C)o1` [GAT0113A], which IC50 [3] is on record?
**A.** Its IC50 is 8 ± 2 µM.

**Q.** And the “SI NCTC/ L. infantum” value [3]?
**A.** The value was 40.

**Q.** What about the IC50 [1] of the same compound?
**A.** The IC50 was 66 ± 7 µM.

**Q.** And the IC50 [5]?
**A.** The IC50 was 10 ± 1 µM.

**Q.** And the “SI NCTC/ L. braziliensis” value [5]?
**A.** The value was 32.

**Q.** What about the IC50 [2] of the same compound?
**A.** The IC50 was 3 ± 0.5 µM.

**Q.** And the “Trypanocidal activity on T. cruzi in words” value [2]?
**A.** The value was “equipotent to the parent compound”.

**Q.** What about the “SI J774.1/ T. cruzi” value [2] of the same compound?
**A.** Its value is 22.

**Q.** What about the melting point of the same compound?
**A.** The melting point was 220 °C (dec.).

**Q.** And the IC50 (NCTC929 fibroblasts)?
**A.** Its IC50 is 319 ± 16 µM.

**Q.** Which results are given for `C=CCn1c(-c2ccc(Cl)cc2)cs\c1=N/N=C/C(C)=C/c1ccco1` [GAT0513]?
**A.** IC50 [3]: 58 ± 12 µM; SI NCTC/ L. infantum [3]: 25; IC50 [1]: 55 ± 5 µM; IC50 [5]: 33 ± 11 µM; SI NCTC/ L. braziliensis [5]: 44; IC50 [2]: 0.09 ± 0.02 µM; Trypanocidal activity on T. cruzi in words [2]: active against T. cruzi; SI J774.1/ T. cruzi [2]: 611; melting point: 228 °C (dec.); IC50 (NCTC929 fibroblasts): 1440 ± 30 µM
